The compounds below were run against T1, MecA (Staphylococcus aureus, UniProt Q7DHH4) (assay: Binding affinity against PBP2a receptor by competition analysis with [3H]benzylpenicillin using cell membrane fractions from the MRSA COL strain.).
T1 sequence (Q7DHH4 whole entry): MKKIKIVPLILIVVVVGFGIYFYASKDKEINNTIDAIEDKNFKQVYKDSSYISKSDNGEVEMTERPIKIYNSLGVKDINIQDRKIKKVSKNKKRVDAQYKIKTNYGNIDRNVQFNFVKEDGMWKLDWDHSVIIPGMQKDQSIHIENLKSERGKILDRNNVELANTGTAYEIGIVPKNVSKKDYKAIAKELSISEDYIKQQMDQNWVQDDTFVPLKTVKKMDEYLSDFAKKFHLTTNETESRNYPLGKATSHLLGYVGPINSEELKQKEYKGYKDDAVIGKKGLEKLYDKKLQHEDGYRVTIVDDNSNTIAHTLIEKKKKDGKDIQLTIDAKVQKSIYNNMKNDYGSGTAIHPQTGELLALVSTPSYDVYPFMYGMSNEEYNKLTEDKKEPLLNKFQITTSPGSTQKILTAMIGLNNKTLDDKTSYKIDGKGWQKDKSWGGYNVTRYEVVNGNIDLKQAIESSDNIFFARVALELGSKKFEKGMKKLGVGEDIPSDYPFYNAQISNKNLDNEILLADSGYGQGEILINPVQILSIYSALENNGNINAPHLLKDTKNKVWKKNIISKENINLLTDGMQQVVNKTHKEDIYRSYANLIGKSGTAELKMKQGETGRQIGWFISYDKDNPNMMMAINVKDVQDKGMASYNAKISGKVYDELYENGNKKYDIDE
In the case of `CCC[N+]12CC[N+](Cc3ccc4c(c3)C(=O)c3ccc(C5=C(C(=O)O)N6C(=O)[C@H]([C@@H](C)O)[C@H]6C5)cc3-4)(CC1)CC2.[Cl-].[Cl-]`, the IC50 is reported as 0.456 µM. `C[C@@H](O)[C@H]1C(=O)N2C(C(=O)O)=C(c3ccc4c(c3)-c3ccc(C[N+]56CC[N+](CC(=O)Nc7cccc(C#N)c7)(CC5)CC6)cc3C4=O)[C@H](C)[C@H]12.[Cl-].[Cl-]` showed an IC50 of 0.752 µM. `C[C@@H](O)[C@H]1C(=O)N2C(C(=O)O)=C(c3ccc4c(c3)-c3ccc(C[N+]56CC[N+](CC(=O)Nc7ccc(C#N)cc7)(CC5)CC6)cc3C4=O)[C@H](C)[C@H]12.[Cl-].[Cl-]` gave an IC50 of 1.41 µM. `C[C@@H](O)[C@H]1C(=O)N2C(C(=O)O)=C(c3ccc4c(c3)-c3ccc(C[N+]56CC[N+](CC(=O)Nc7ccc(C(N)=O)cc7)(CC5)CC6)cc3C4=O)[C@H](C)[C@H]12.[Cl-].[Cl-]` gave an IC50 of 1.97 µM. With `CC[N+]12CC[N+](Cc3ccc4c(c3)C(=O)c3ccc(C5=C(C(=O)O)N6C(=O)[C@H]([C@@H](C)O)[C@H]6C5)cc3-4)(CC1)CC2.[Cl-].[Cl-]` the IC50 was 0.416 µM. In the case of `C[C@@H](O)[C@H]1C(=O)N2C(C(=O)O)=C(c3ccc4c(c3)-c3ccc(C[N+]56CC[N+](CC(=O)Nc7ccncc7)(CC5)CC6)cc3C4=O)[C@H](C)[C@H]12.[Cl-].[Cl-]`, the IC50 is reported as 1.19 µM. Work on `C[C@@H](O)[C@H]1C(=O)N2C(C(=O)O)=C(c3ccc4c(c3)-c3ccc(C[N+]56CC[N+](Cc7ccccc7)(CC5)CC6)cc3C4=O)[C@H](C)[C@H]12.[Cl-].[Cl-]` yielded an IC50 of 3.25 µM. For `CCCNC(=O)C[N+]12CC[N+](Cc3ccc4c(c3)C(=O)c3ccc(C5=C(C(=O)O)N6C(=O)[C@H]([C@@H](C)O)[C@H]6[C@H]5C)cc3-4)(CC1)CC2.[Cl-].[Cl-]`, the IC50 was 1.23 µM. `C[C@@H](O)[C@H]1C(=O)N2C(C(=O)O)=C(c3ccc4c(c3)-c3ccc(C[N+]56CC[N+](CCO)(CC5)CC6)cc3C4=O)C[C@H]12.[Cl-].[Cl-]` showed an IC50 of 0.276 µM. `C[C@@H](O)[C@H]1C(=O)N2C(C(=O)O)=C(c3ccc4c(c3)-c3ccc(C[N+]56CC[N+](CC(=O)NC(C)(C)C)(CC5)CC6)cc3C4=O)[C@H](C)[C@H]12.[Cl-].[Cl-]` gave an IC50 of 3.43 µM. Work on `C[C@@H](O)[C@H]1C(=O)N2C(C(=O)O)=C(c3ccc4c(c3)-c3ccc(C[N+]56CC[N+](CC(=O)N(C)c7ccccc7)(CC5)CC6)cc3C4=O)[C@H](C)[C@H]12.[Cl-].[Cl-]` yielded an IC50 of 1.23 µM. With `C[C@@H](O)[C@H]1C(=O)N2C(C(=O)O)=C(c3ccc4c(c3)-c3ccc(C[N+]56CC[N+](CC(=O)Nc7ccccc7C(N)=O)(CC5)CC6)cc3C4=O)[C@H](C)[C@H]12.[Cl-].[Cl-]` the IC50 was 1.02 µM. `C[C@@H](O)[C@H]1C(=O)N2C(C(=O)O)=C(c3ccc4c(c3)-c3ccc(C[N+]56CC[N+](CC(=O)NC7CCCC7)(CC5)CC6)cc3C4=O)[C@H](C)[C@H]12.[Cl-].[Cl-]` showed an IC50 of 1.41 µM. `C[C@@H](O)[C@H]1C(=O)N2C(C(=O)O)=C(c3ccc4c(c3)-c3ccc(C[N+]56CC[N+](CC(=O)Nc7ccccc7C#N)(CC5)CC6)cc3C4=O)[C@H](C)[C@H]12.[Cl-].[Cl-]` was tested, and the IC50 was 1.1 µM.

The compounds below were run on Staphylococcus sp. (assay: Antibacterial activity against methicillin-resistant coagulase negative Staphylococci (MRCNS)).
Assay type: functional
With `CCC[N+]12CC[N+](Cc3ccc4c(c3)C(=O)c3ccc(C5=C(C(=O)O)N6C(=O)[C@H]([C@@H](C)O)[C@H]6C5)cc3-4)(CC1)CC2.[Cl-].[Cl-]` the MIC50 was 2 µg/mL and the MIC90 was 4 µg/mL. `C[C@@H](O)[C@H]1C(=O)N2C(C(=O)O)=C(c3ccc4c(c3)-c3ccc(C[N+]56CC[N+](CC(=O)Nc7cccc(C#N)c7)(CC5)CC6)cc3C4=O)[C@H](C)[C@H]12.[Cl-].[Cl-]` gave an MIC50 of 1 µg/mL and an MIC90 of 2 µg/mL. `C[C@@H](O)[C@H]1C(=O)N2C(C(=O)O)=C(c3ccc4c(c3)-c3ccc(C[N+]56CC[N+](CC(=O)Nc7ccc(C#N)cc7)(CC5)CC6)cc3C4=O)[C@H](C)[C@H]12.[Cl-].[Cl-]` gave an MIC50 of 1 µg/mL and an MIC90 of 4 µg/mL. With `C[C@@H](O)[C@H]1C(=O)N2C(C(=O)O)=C(c3ccc4c(c3)-c3ccc(C[N+]56CC[N+](CC(=O)Nc7ccc(C(N)=O)cc7)(CC5)CC6)cc3C4=O)[C@H](C)[C@H]12.[Cl-].[Cl-]` the MIC50 was 0.5 µg/mL and the MIC90 was 2 µg/mL. In the case of `CC[N+]12CC[N+](Cc3ccc4c(c3)C(=O)c3ccc(C5=C(C(=O)O)N6C(=O)[C@H]([C@@H](C)O)[C@H]6C5)cc3-4)(CC1)CC2.[Cl-].[Cl-]`, the MIC50 is reported as 2 µg/mL and the MIC90 is reported as 4 µg/mL. `C[C@@H](O)[C@H]1C(=O)N2C(C(=O)O)=C(c3ccc4c(c3)-c3ccc(C[N+]56CC[N+](CC(=O)Nc7ccncc7)(CC5)CC6)cc3C4=O)[C@H](C)[C@H]12.[Cl-].[Cl-]` showed an MIC50 of 2 µg/mL and an MIC90 of 4 µg/mL. `C[C@@H](O)[C@H]1C(=O)N2C(C(=O)O)=C(c3ccc4c(c3)-c3ccc(C[N+]56CC[N+](Cc7ccccc7)(CC5)CC6)cc3C4=O)[C@H](C)[C@H]12.[Cl-].[Cl-]` was tested, and the MIC50 was 2 µg/mL and the MIC90 was 8 µg/mL. With `CCCNC(=O)C[N+]12CC[N+](Cc3ccc4c(c3)C(=O)c3ccc(C5=C(C(=O)O)N6C(=O)[C@H]([C@@H](C)O)[C@H]6[C@H]5C)cc3-4)(CC1)CC2.[Cl-].[Cl-]` the MIC50 was 4 µg/mL and the MIC90 was 8 µg/mL. In the case of `C[C@@H](O)[C@H]1C(=O)N2C(C(=O)O)=C(c3ccc4c(c3)-c3ccc(C[N+]56CC[N+](CCO)(CC5)CC6)cc3C4=O)C[C@H]12.[Cl-].[Cl-]`, the MIC50 is reported as 2 µg/mL and the MIC90 is reported as 4 µg/mL. `C[C@@H](O)[C@H]1C(=O)N2C(C(=O)O)=C(c3ccc4c(c3)-c3ccc(C[N+]56CC[N+](CC(=O)NC(C)(C)C)(CC5)CC6)cc3C4=O)[C@H](C)[C@H]12.[Cl-].[Cl-]` was tested, and the MIC50 was 4 µg/mL and the MIC90 was 8 µg/mL. For `C[C@@H](O)[C@H]1C(=O)N2C(C(=O)O)=C(c3ccc4c(c3)-c3ccc(C[N+]56CC[N+](CC(=O)N(C)c7ccccc7)(CC5)CC6)cc3C4=O)[C@H](C)[C@H]12.[Cl-].[Cl-]`, the MIC50 was 8 µg/mL and the MIC90 was 16 µg/mL. For `C[C@@H](O)[C@H]1C(=O)N2C(C(=O)O)=C(c3ccc4c(c3)-c3ccc(C[N+]56CC[N+](CC(=O)Nc7ccccc7C(N)=O)(CC5)CC6)cc3C4=O)[C@H](C)[C@H]12.[Cl-].[Cl-]`, the MIC50 was 2 µg/mL and the MIC90 was 8 µg/mL. Compound `C[C@@H](O)[C@H]1C(=O)N2C(C(=O)O)=C(c3ccc4c(c3)-c3ccc(C[N+]56CC[N+](CC(=O)NC7CCCC7)(CC5)CC6)cc3C4=O)[C@H](C)[C@H]12.[Cl-].[Cl-]` has an MIC50 of 4 µg/mL and an MIC90 of 8 µg/mL. With `C[C@@H](O)[C@H]1C(=O)N2C(C(=O)O)=C(c3ccc4c(c3)-c3ccc(C[N+]56CC[N+](CC(=O)Nc7ccccc7C#N)(CC5)CC6)cc3C4=O)[C@H](C)[C@H]12.[Cl-].[Cl-]` the MIC50 was 2 µg/mL and the MIC90 was 4 µg/mL.

The compounds below were run on Staphylococcus aureus (assay: Antibacterial activity against methicillin-resistant Staphylococcus aureus (MRSA)).
Assay type: functional
`CCC[N+]12CC[N+](Cc3ccc4c(c3)C(=O)c3ccc(C5=C(C(=O)O)N6C(=O)[C@H]([C@@H](C)O)[C@H]6C5)cc3-4)(CC1)CC2.[Cl-].[Cl-]` was tested, and the MIC50 was 2 µg/mL and the MIC90 was 4 µg/mL. `C[C@@H](O)[C@H]1C(=O)N2C(C(=O)O)=C(c3ccc4c(c3)-c3ccc(C[N+]56CC[N+](CC(=O)Nc7cccc(C#N)c7)(CC5)CC6)cc3C4=O)[C@H](C)[C@H]12.[Cl-].[Cl-]` was tested, and the MIC50 was 0.5 µg/mL and the MIC90 was 1 µg/mL. `C[C@@H](O)[C@H]1C(=O)N2C(C(=O)O)=C(c3ccc4c(c3)-c3ccc(C[N+]56CC[N+](CC(=O)Nc7ccc(C#N)cc7)(CC5)CC6)cc3C4=O)[C@H](C)[C@H]12.[Cl-].[Cl-]` was tested, and the MIC50 was 1 µg/mL and the MIC90 was 2 µg/mL. `C[C@@H](O)[C@H]1C(=O)N2C(C(=O)O)=C(c3ccc4c(c3)-c3ccc(C[N+]56CC[N+](CC(=O)Nc7ccc(C(N)=O)cc7)(CC5)CC6)cc3C4=O)[C@H](C)[C@H]12.[Cl-].[Cl-]` was tested, and the MIC50 was 0.25 µg/mL and the MIC90 was 0.5 µg/mL. Compound `CC[N+]12CC[N+](Cc3ccc4c(c3)C(=O)c3ccc(C5=C(C(=O)O)N6C(=O)[C@H]([C@@H](C)O)[C@H]6C5)cc3-4)(CC1)CC2.[Cl-].[Cl-]` has an MIC50 of 2 µg/mL and an MIC90 of 4 µg/mL. Work on `C[C@@H](O)[C@H]1C(=O)N2C(C(=O)O)=C(c3ccc4c(c3)-c3ccc(C[N+]56CC[N+](CC(=O)Nc7ccncc7)(CC5)CC6)cc3C4=O)[C@H](C)[C@H]12.[Cl-].[Cl-]` yielded an MIC50 of 1 µg/mL and an MIC90 of 2 µg/mL. `C[C@@H](O)[C@H]1C(=O)N2C(C(=O)O)=C(c3ccc4c(c3)-c3ccc(C[N+]56CC[N+](Cc7ccccc7)(CC5)CC6)cc3C4=O)[C@H](C)[C@H]12.[Cl-].[Cl-]` showed an MIC50 of 1 µg/mL and an MIC90 of 2 µg/mL. Work on `CCCNC(=O)C[N+]12CC[N+](Cc3ccc4c(c3)C(=O)c3ccc(C5=C(C(=O)O)N6C(=O)[C@H]([C@@H](C)O)[C@H]6[C@H]5C)cc3-4)(CC1)CC2.[Cl-].[Cl-]` yielded an MIC50 of 2 µg/mL and an MIC90 of 4 µg/mL. Compound `C[C@@H](O)[C@H]1C(=O)N2C(C(=O)O)=C(c3ccc4c(c3)-c3ccc(C[N+]56CC[N+](CCO)(CC5)CC6)cc3C4=O)C[C@H]12.[Cl-].[Cl-]` has an MIC50 of 2 µg/mL and an MIC90 of 4 µg/mL. With `C[C@@H](O)[C@H]1C(=O)N2C(C(=O)O)=C(c3ccc4c(c3)-c3ccc(C[N+]56CC[N+](CC(=O)NC(C)(C)C)(CC5)CC6)cc3C4=O)[C@H](C)[C@H]12.[Cl-].[Cl-]` the MIC50 was 2 µg/mL and the MIC90 was 4 µg/mL. Compound `C[C@@H](O)[C@H]1C(=O)N2C(C(=O)O)=C(c3ccc4c(c3)-c3ccc(C[N+]56CC[N+](CC(=O)N(C)c7ccccc7)(CC5)CC6)cc3C4=O)[C@H](C)[C@H]12.[Cl-].[Cl-]` has an MIC50 of 4 µg/mL and an MIC90 of 4 µg/mL. For `C[C@@H](O)[C@H]1C(=O)N2C(C(=O)O)=C(c3ccc4c(c3)-c3ccc(C[N+]56CC[N+](CC(=O)Nc7ccccc7C(N)=O)(CC5)CC6)cc3C4=O)[C@H](C)[C@H]12.[Cl-].[Cl-]`, the MIC50 was 2 µg/mL and the MIC90 was 4 µg/mL. Work on `C[C@@H](O)[C@H]1C(=O)N2C(C(=O)O)=C(c3ccc4c(c3)-c3ccc(C[N+]56CC[N+](CC(=O)NC7CCCC7)(CC5)CC6)cc3C4=O)[C@H](C)[C@H]12.[Cl-].[Cl-]` yielded an MIC50 of 2 µg/mL and an MIC90 of 4 µg/mL. `C[C@@H](O)[C@H]1C(=O)N2C(C(=O)O)=C(c3ccc4c(c3)-c3ccc(C[N+]56CC[N+](CC(=O)Nc7ccccc7C#N)(CC5)CC6)cc3C4=O)[C@H](C)[C@H]12.[Cl-].[Cl-]` was tested, and the MIC50 was 1 µg/mL and the MIC90 was 2 µg/mL.
